Results published in patent US6420313B1, “Thienylalkylamino-1,3,5-triazines and the use thereof as herbicides” (Bayer Aktiengesellschaft, priority 1998, dated 2002).

What was measured:
Type in all cases: in vivo
barley = assay: Post-emergence test/greenhouse, barley; conditions: 500 g of ai./ha, after three weeks
Description: (§1) Solvent: 5 parts by weight of acetone
(§2) Emulsifier: 1 part by weight of alkylaryl polyglycol ether
(§3) To produce a suitable preparation of active compound, 1 part by weight of active compound is mixed with the stated amount of solvent, the stated amount of emulsifier is added and the concentrate is diluted with water to the desired concentration.
(§4) Test plants of a height of 5-15 cm are sprayed with the preparation of active compound such that the particular amounts of active compound desired are applied per unit area. The concentration of the spray liquor is chosen so that the particular amounts of active compound desired are applied in 1000 l of water/ha.
(§5) After three weeks, the degree of damage to the plants is rated in % damage in comparison to the development of the untreated control.
(§6) 0%=no effect (like untreated control)

wheat = assay: Post-emergence test/greenhouse, wheat; conditions: 500 g of ai./ha, after three weeks
Description: as §1, §2, §3, §4, §5, §6

Datura = assay: Post-emergence test/greenhouse, Datura; conditions: 500 g of ai./ha, after three weeks
Description: as §1, §2, §3, §4, §5, §6

Ipomoea = assay: Post-emergence test/greenhouse, Ipomoea; conditions: 500 g of ai./ha, after three weeks
Description: as §1, §2, §3, §4, §5, §6

Solanum = assay: Post-emergence test/greenhouse, Solanum; conditions: 500 g of ai./ha, after three weeks
Description: as §1, §2, §3, §4, §5, §6

Viola = assay: Post-emergence test/greenhouse, Viola; conditions: 500 g of ai./ha, after three weeks
Description: as §1, §2, §3, §4, §5, §6

Digitaria = assay: Post-emergence test/greenhouse, digitaria; conditions: 500 g of ai./ha, after three weeks
Description: as §1, §2, §3, §4, §5, §6

weeds [1] = assay: Pre-emergence test, activity against weeds; conditions: result in words
Description: as §1, §2, §3
(§7) Seeds of the test plants are sown in normal soil. After about 24 hours, the soil is sprayed with the preparation of active compound such that the particular amount of active compound desired is applied per unit area. The concentration of the spray liquor is chosen so that the particular amount of active compound desired is applied in 1000 liters of water per hectare.
as §5, §6

[2] = test system: crop plants, such as, for example, cotton, maize, wheat and barley; assay: Pre-emergence test, tolerance by crop plants; conditions: result in words
Description: as §1, §2, §3, §7, §5, §6

weeds [3] = assay: Post-emergence test, activity against weeds; conditions: result in words
Description: as §1, §2, §3, §4, §5, §6

[4] = test system: crop plants, such as, for example, maize, barley and wheat; assay: Post-emergence test, tolerance by crop plants; conditions: result in words
Description: as §1, §2, §3, §4, §5, §6

maize = assay: Post-emergence test/greenhouse, maize; conditions: 1000 g of ai./ha, after three weeks
Description: as §1, §2, §3, §4, §5, §6

Setaria = assay: Post-emergence test/greenhouse, Setaria; conditions: 1000 g of ai./ha, after three weeks
Description: as §1, §2, §3, §4, §5, §6

Abutilon = assay: Post-emergence test/greenhouse, Abutilon; conditions: 1000 g of ai./ha, after three weeks
Description: as §1, §2, §3, §4, §5, §6

Amaranthus = assay: Post-emergence test/greenhouse, Amaranthus; conditions: 1000 g of ai./ha, after three weeks
Description: as §1, §2, §3, §4, §5, §6

Sinapis = assay: Post-emergence test/greenhouse, Sinapis; conditions: 1000 g of ai./ha, after three weeks
Description: as §1, §2, §3, §4, §5, §6

SMILES | degree of damage, barley (barley) [%] | degree of damage, wheat (wheat) [%] | degree of damage, Datura (Datura) [%] | degree of damage, Ipomoea (Ipomoea) [%] | degree of damage, Solanum (Solanum) [%] | degree of damage, Viola (Viola) [%] | degree of damage, Digitaria (Digitaria) [%] | activity against weeds (weeds [1]) | tolerance by crop plants [2] | activity against weeds (weeds [3]) | tolerance by crop plants [4] | degree of damage, maize (maize) [%] | degree of damage, Setaria (Setaria) [%] | degree of damage, Abutilon (Abutilon) [%] | degree of damage, Amaranthus (Amaranthus) [%] | degree of damage, Sinapis (Sinapis) [%]
CCC(CCc1cc(Br)cs1)Nc1nc(NC(C)=O)nc(C(C)F)n1 (racemic) [Example 6] | 0 | 0 | 100 | 100 | 100 | 100 | 90 | strong activity against weeds | largely tolerated well | strong activity against weeds | tolerated well | – | – | – | – | –
CC(CCCc1cccs1)Nc1nc(N)nc(C(C)(C)F)n1 (centres unmarked) [Example 1, 2-amino-4-(1-fluoro-1-methyl-ethyl)-6-(1-methyl-4-(thien-2-yl)-butylamino)-1,3,5-triazine] | – | – | – | – | – | – | – | strong activity against weeds | largely tolerated well | strong activity against weeds | tolerated well | 30 | 80 | 95 | 100 | 100
